Data on seven molecules can be found in US5795907A, “Gastin and CCK receptor ligands” (James Black Foundation Limited, priority 1994, dated 1998).

In one assay the target is T1, CCKB receptor (Mus musculus, UniProt P56481).
T1 construct: The cortex was dissected, weighed and homogenised in 40ml ice-cold buffer; tissue Charles River (supplier of the CD1 mice); host or cells: cerebral cortex membranes of male CD1 mice
T1 sequence (P56481 1-453): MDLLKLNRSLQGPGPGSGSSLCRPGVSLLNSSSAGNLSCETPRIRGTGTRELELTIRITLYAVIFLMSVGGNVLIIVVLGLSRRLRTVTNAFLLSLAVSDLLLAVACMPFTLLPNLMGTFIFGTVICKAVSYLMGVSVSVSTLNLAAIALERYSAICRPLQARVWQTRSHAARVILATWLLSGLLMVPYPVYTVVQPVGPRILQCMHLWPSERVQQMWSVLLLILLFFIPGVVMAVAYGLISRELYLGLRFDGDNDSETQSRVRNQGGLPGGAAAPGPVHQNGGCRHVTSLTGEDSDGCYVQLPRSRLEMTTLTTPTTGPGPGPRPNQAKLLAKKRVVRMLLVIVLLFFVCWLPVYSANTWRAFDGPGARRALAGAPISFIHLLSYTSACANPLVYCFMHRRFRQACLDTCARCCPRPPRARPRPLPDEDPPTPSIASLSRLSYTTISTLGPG
As to the kind of experiment: CCKB receptor radioligand binding assay in mouse cortical membranes ([125I]-CCK8S). To be noted: [125I]-CCK8S 200 pM, 150 min at 21±3°; for Ki: read-out: CCKB pKi (converted). In outline:
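This was competition binding with tracer [125I]-CCK8S (200 pM solution added), run for 150 min at 21±3° on male CD1 mouse cortex membranes in pH 7.2 HEPES buffer with bacitracin. Filtration then gamma counting gave bound radioactivity. L-365,260 set the non-specific level.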

A further assay has as its target T2, gastrin (Rattus norvegicus, UniProt P30553).
T2 construct: The stomach was lowered into a jacketed organ bath containing 40 ml of buffered solution; from tissue; host or cells: isolated perfused whole stomach of immature rats (ca. 21 days old)
T2 sequence (P30553 1-452): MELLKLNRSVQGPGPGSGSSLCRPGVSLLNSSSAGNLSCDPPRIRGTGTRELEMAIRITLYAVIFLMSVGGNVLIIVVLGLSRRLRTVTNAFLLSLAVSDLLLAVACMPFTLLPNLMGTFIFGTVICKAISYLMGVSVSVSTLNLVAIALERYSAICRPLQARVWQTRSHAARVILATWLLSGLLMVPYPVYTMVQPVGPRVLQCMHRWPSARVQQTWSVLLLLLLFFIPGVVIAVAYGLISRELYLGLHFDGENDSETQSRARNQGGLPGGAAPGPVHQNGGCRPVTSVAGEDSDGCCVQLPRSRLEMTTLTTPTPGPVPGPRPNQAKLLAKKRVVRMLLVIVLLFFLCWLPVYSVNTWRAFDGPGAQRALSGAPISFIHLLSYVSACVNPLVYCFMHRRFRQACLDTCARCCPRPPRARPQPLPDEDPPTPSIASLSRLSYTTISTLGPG
As to the kind of experiment: gastrin antagonist activity in an immature rat stomach assay (pentagastrin-stimulated acid secretion). To be noted: cumulative pentagastrin dose-response curves after 60 min with drug; for Kb: read-out: Gastrin pKB (converted). In a few lines: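 Isolated lumen-perfused immature rat stomach (33-50 g, ca. 21 days) in 37° organ bath with 3×10^-8 M 5-methylfurmethide; acid secretion read by pH electrode in perfusate. Compound added to serosal bath after 120 min stabilisation; cumulative pentagastrin dose-response curves begun 60 min later and analysed by the Black et al. method.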

The target of the next assay is T3, CCKA (Cavia porcellus, UniProt Q63931).
T3 construct: The pancreatata were homogenised in 40 ml ice-cold HEPES buffer using a polytron; from tissue; host or cells: pancreas membranes of male Dunkin Hartley guinea-pigs
T3 sequence (Q63931 1-430): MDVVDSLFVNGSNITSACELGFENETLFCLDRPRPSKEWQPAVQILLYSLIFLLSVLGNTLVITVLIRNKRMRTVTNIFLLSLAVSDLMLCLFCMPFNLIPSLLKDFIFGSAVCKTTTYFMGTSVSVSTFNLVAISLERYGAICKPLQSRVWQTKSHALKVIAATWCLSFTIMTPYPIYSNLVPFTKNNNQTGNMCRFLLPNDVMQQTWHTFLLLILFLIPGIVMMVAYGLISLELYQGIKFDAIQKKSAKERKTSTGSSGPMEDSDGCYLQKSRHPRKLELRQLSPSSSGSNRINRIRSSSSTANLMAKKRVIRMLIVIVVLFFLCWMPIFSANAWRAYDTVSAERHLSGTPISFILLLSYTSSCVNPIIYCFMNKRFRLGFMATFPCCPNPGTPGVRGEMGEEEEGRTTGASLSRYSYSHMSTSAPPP
As to the kind of experiment: CCKA radioligand binding assay in guinea-pig pancreas membranes ([125I]-CCK8(S)). Particulars: PD134,308 present, 150 minutes at 21±3°; for Ki: read-out: CCKA pKi (converted). In a few lines:
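Competition for [125I]-CCK8(S) (added as […] solution) ran for 150 min at 21±3° in HEPES pH 7.2. Membranes came from male guinea-pig pancreas at 1 mg/ml original wet weight, with 0.375 μM PD134,308 in the suspension. Filter-bound counts were gamma-counted; 100 nM L-364,718 (added solution) defined non-specific binding.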

Consider `O=C(O)c1cc(NC(=O)[C@H](Cc2ccccc2)NC(=O)c2cc3ccsc3cc2C(=O)NCC23CC4CC(CC(C4)C2)C3)cc(C(=O)O)c1` [Example 125, 5-(1S-(3,5-dicarboxyphenylaminocarbonyl)-2-phenylethylaminocarbonyl)-6-(1-adamantanemethylaminocarbonyl)-benzothiophene], for which, on CCKB receptor, the “CCKB pKi” value is recorded as 8.9. Further, on gastrin, the “Gastrin pKB” value was found to be 9.4. Also, the “CCKA pKi” value on CCKA worked out at 5.7.

As to `O=C(O)c1ccc(Cl)c(NC(=O)[C@H](Cc2ccccc2)NC(=O)c2cc3[nH]cnc3cc2C(=O)NCC23CC4CC(CC(C4)C2)C3)c1` [Example 127, 5-(1S-(^2-chloro-5-carboxyphenylaminocarbonyl)-2-phenylethylaminocarbonyl)-6-(1-adamantanemethylaminocarbonyl)-benzimidazole], the results for the Ki at CCKB receptor and on CCKA were 0.0251 µM and 1.26 µM, respectively. Also, the Kb at gastrin is 0.0316 µM.

Take `O=C(NCC12CC3CC(CC(C3)C1)C2)c1cc2nc[nH]c2cc1C(=O)N[C@@H](Cc1ccccc1)C(=O)Nc1cccc(S(=O)(=O)NC(=O)C(F)(F)F)c1` [Example 128, 5-(1S-(3-trifluoroacetylaminosulphonylphenylaminocarbonyl)-2-phenylethylaminocarbonyl)-6-(1-adamantanemethylaminocarbonyl)-benzimidazole]: the results for the Ki on CCKB receptor and at CCKA were 0.00631 µM and 2 µM, respectively. The Kb at gastrin was 0.00251 µM.

Consider `O=C(O)c1cc(NC(=O)[C@H](Cc2cccc(F)c2)NC(=O)c2cc3[nH]cnc3cc2C(=O)NCC23CC4CC(CC(C4)C2)C3)cc(C(=O)O)c1` [Example 131, 5-(1S-(3,5-dicarboxyphenylaminocarbonyl)-2-(3-fluorophenyl)ethylaminocarbonyl)-6-(1-adamantanemethylaminocarbonyl)-benzimidazole], for which the values for the Ki on CCKB receptor and at CCKA were 0.00398 µM and 5.01 µM, respectively. Further, the Kb at gastrin was 0.0002 µM.

For `O=C(O)c1cc(NC(=O)[C@H](Cc2ccc(F)cc2)NC(=O)c2cc3[nH]cnc3cc2C(=O)NCC23CC4CC(CC(C4)C2)C3)cc(C(=O)O)c1` [Example 132, 5-(1S-(3,5-dicarboxyphenylaminocarbonyl)-2-(4-fluorophenyl)ethylaminocarbonyl)-6-(1-adamantanemethylaminocarbonyl)-benzimidazole], the Ki at CCKB receptor is 0.00398 µM; on CCKA, 3.98 µM. Also, the Kb on gastrin was 0.001 µM.

For `O=C(O)c1cc(NC(=O)[C@H](Cc2ccc(I)cc2)NC(=O)c2cc3[nH]cnc3cc2C(=O)NCC23CC4CC(CC(C4)C2)C3)cc(C(=O)O)c1` [Example 134, 5-(1S-(3,5-dicarboxyphenylaminocarbonyl)-2-(4-iodophenyl)ethylaminocarbonyl)-6-(1-adamantanemethylaminocarbonyl)-benzimidazole], the results for the Ki at CCKB receptor and on CCKA were 0.0251 µM and 0.794 µM, respectively. Further, the Kb at gastrin is 0.00158 µM.

For the molecule `O=C(O)c1cc(NC(=O)[C@H](Cc2ccccc2Cl)NC(=O)c2cc3[nH]cnc3cc2C(=O)NCC23CC4CC(CC(C4)C2)C3)cc(C(=O)O)c1` [Example 135, 5-(1S-(3,5-dicarboxyphenylaminocarbonyl)-2-(2-chlorophenyl)ethylaminocarbonyl)-6-(1-adamantanemethylaminocarbonyl)-benzimidazole], on CCKB receptor, the “CCKB pKi” value is 8.3. In addition, at gastrin, the “Gastrin pKB” value was 8.9. Further, on CCKA, the “CCKA pKi” value is 5.1.
